This is an account of results in PMC6700280, “Identification of Novel 3-Hydroxy-pyran-4-One Derivatives as Potent HIV-1 Integrase Inhibitors Using in silico Structure-Based Combinatorial Library Design Approach” (Frontiers in Chemistry, 2019).

Molecules are shown by their SMILES. Where two headings read alike, the source gives them in different places. Bounds are passed on as bounds.

The target of data set [1] is T1, HIV-1 IN (Human immunodeficiency virus type 1 group M subtype B, UniProt P04585). Also on record: method as in Sirous et al., 2019. As to conditions: read-out: Overall HIV-1 IN activity inhibition IC50; previously reported lead; ref Sirous et al., 2019; cited from earlier work.
In data set [2] the target is T2, HIV-1 IN strand transfer activity (Human immunodeficiency virus type 1 group M subtype B, UniProt P04585). More on the design: method as in Sirous et al., 2019. The conditions noted are these: read-out: HIV-1 IN strand transfer activity inhibition IC50; previously reported lead; ref Sirous et al., 2019; cited from earlier work.
Data set [3] deals with HIV-1. More on the design: method as in Sirous et al., 2019. As to conditions: MT-4 cells; previously reported lead; ref Sirous et al., 2019; read-out: HIV-1 activity inhibition EC50; cited from earlier work.
For data set [4], the system named is MT-4 cells. More on the design: method as in Sirous et al., 2019. The conditions noted are these: previously reported lead, cited from earlier work; for CC50: ref Sirous et al., 2019, read-out: Cellular toxicity CC50; for TI (therapeutic index, CC50/EC50 ratio): ref Sirous et al., 2019.
The target of data set [5] is T1, HIV-1 IN. As to the kind of experiment: Overall HIV-1 IN integration assay (ELISA). In kind it is biochemical.
Data set [6] concerns HIV-1. As to the kind of experiment: MT-4/MTT anti-HIV assay (HIV-induced cytopathic effect). The conditions noted are these: Human immunodeficiency virus 1, MT4; MT-4 cells; read-out: HIV-1 activity inhibition EC50. In kind it is cell-based. The procedure: The inhibitory effect of antiviral drugs on the HIV-induced cytopathic effect (CPE) in human lymphocyte MT-4 cell culture was determined by the MT-4/MTT-assay (Pauwels et al., [1988]). This assay is based on the reduction of the yellow colored 3-(4,5-dimethylthiazol-2-yl)-2,5-diphenyltetrazolium bromide (MTT) by mitochondrial dehydrogenase of metabolically active cells to a blue formazan derivative, which can be measured spectrophotometrically. The 50% cell culture infective dose of the HIV strains was determined by titration of the virus stock using MT-4 cells. For the drug susceptibility assays, MT-4 cells were infected with 100–300 50% cell culture infective doses of the HIV strains in the presence of 5-fold serial dilutions of the antiviral drugs. The concentration of the compound achieving 50% protection against the CPE of HIV, which is defined as the 50% effective concentration (EC50), was determined. In parallel, the concentration of the compound destroying 50% of the MT-4 cells, which is defined as the 50% cytotoxic concentration (CC50), was determined as well.

Data set [7] can be described thus: MT-4/MTT cytotoxicity assay. As to conditions: human, MT-4 cells; read-out: Cellular toxicity CC50. The data set is classed as cell-based, human. How it is done:
(§1) The inhibitory effect of antiviral drugs on the HIV-induced cytopathic effect (CPE) in human lymphocyte MT-4 cell culture was determined by the MT-4/MTT-assay (Pauwels et al., [1988]). […] The 50% cell culture infective dose of the HIV strains was determined by titration of the virus stock using MT-4 cells. For the drug susceptibility assays, MT-4 cells were infected with 100–300 50% cell culture infective doses of the HIV strains in the presence of 5-fold serial dilutions of the antiviral drugs. […] In parallel, the concentration of the compound destroying 50% of the MT-4 cells, which is defined as the 50% cytotoxic concentration (CC50), was determined as well.

Data set [8] has as its system MT-4 cells. As to the kind of experiment: MT-4/MTT cytotoxicity assay. In kind it is cell-based, human. The procedure:
as §1

For data set [9], the target named is T2, HIV-1 IN strand transfer activity. Description: HIV-1 IN strand transfer assay (ELISA, pre-cleaved oligonucleotide substrate).
Protocol: The enzymatic integration reactions were carried out as previously described with minor modifications (Debyser et al., [2001]; Christ et al., [2011]). To determine the susceptibility of the HIV-1 IN enzyme to different compounds, an enzyme-linked immunosorbent assay (ELISA) adapted from Hwang et al. was used (Hwang et al., [2000]). The overall integration assay uses an oligonucleotide substrate for which one oligonucleotide (5′-[sequence]-3′) is labeled with biotin at the 3′ end and the other oligonucleotide (5′-[sequence]-3′) is labeled with digoxigenin at the 5′ end. For the strand transfer assay, a pre-cleaved oligonucleotide substrate (the second oligonucleotide lacks GT [underlined] at the 3′ end) was used. The IN enzyme was diluted in 750 mM NaCl, 10 mM Tris (pH: 7.6), 10% glycerol, and 1 mM β-mercaptoethanol. To perform the reaction, 4 μL of diluted IN (corresponding to a concentration of 1.6 μM) and 4 μL of annealed oligonucleotides (7 nM) were added in a final reaction volume of 40 μL containing 10 mM MgCl2, 5 mM dithiothreitol, 20 mM HEPES (pH 7.5), 5% polyethylene glycol, and 15% dimethyl sulfoxide. As such, the final concentration of IN in this assay was 160 nM. The reaction was carried out for 1 h at 37°C. Reaction products were denatured with 30 mM NaOH and detected by ELISA on avidin-coated plates.

`Cc1cc(=O)c(O)c(C(=O)NCc2ccc(F)cc2)o1` [HPb]: in [1], the IC50 was 370 ± 170 nM. Moreover, the half-maximal inhibitory concentration (IC50) in [2] is 1405 ± 10 nM. In addition, the EC50 in data set [3] is 1720 ± 990 nM. Also, in data set [4], the CC50 was > 250000 nM and the “TI (therapeutic index, CC50/EC50 ratio)” value is >145.
In the case of `Cc1cc(=O)c(O)c(C(=O)NCc2cccc(-n3cccc3)c2)o1` [HPCAR-142, N-(3-(1H-Pyrrol-1-yl)benzyl)-3-hydroxy-6-methyl-4-oxo-4H-pyran-2-carboxamide], the half-maximal inhibitory concentration (IC50) in data set [5] is 1970 ± 1060 nM; in data set [9], 17490 ± 130 nM. Also, the EC50 in [6] worked out at 4210 ± 520 nM. Moreover, the CC50 in [7] was > 85400 nM. In addition, the “TI (therapeutic index, CC50/EC50 ratio)” value in [8] was >20.3.
For `Cc1cc(=O)c(O)c(C(=O)NCc2ccc(Cl)cc2)o1` [HPd], the IC50 in data set [1] is 700 ± 310 nM. For the same compound, the IC50 in [2] is 1540 ± 200 nM. The EC50 in [3] was 1950 ± 930 nM. Besides, in [4], the CC50 is 196000 ± 4400 nM and the “TI (therapeutic index, CC50/EC50 ratio)” value is 100.3.
As to `Cc1cc(=O)c(O)c(C(=O)NCc2cc(F)cc(-c3ccccn3)c2)o1` [HPCAR-28, N-(3-Fluoro-5-(pyridin-2-yl)benzyl)-3-hydroxy-6-methyl-4-oxo-4H-pyran-2-carboxamide], the results for the IC50 in data set [5] and in [9] were 65 ± 10 nM and 3370 ± 380 nM, respectively. Moreover, the “improvement in anti-IN potency compared to HPb” value in data set [5] (vs HPb IC50 = 0.37 μM) came out at 6 fold. For the same compound, in data set [6], the EC50 was 230 ± 180 nM. Besides, the CC50 in data set [7] is > 250000 nM. Besides, the “TI (therapeutic index, CC50/EC50 ratio)” value in data set [8] is >1,087.
Turning to `Cc1nnc(C(=O)NC(C)(C)c2nc(C(=O)NCc3ccc(F)cc3)c(O)c(=O)n2C)o1` [RLT, Raltegravir, reference compound], the half-maximal effective concentration (EC50) in [6] was determined as 13 ± 8 nM. For the same compound, in data set [7], the CC50 is > 18300 nM.
Regarding `Cc1nc(-c2cccc(CNC(=O)c3oc(C)cc(=O)c3O)c2)c[nH]1` [HPCAR-89, 3-Hydroxy-6-methyl-N-(3-(2-methyl-1H-imidazol-4-yl)benzyl)-4-oxo-4H-pyran-2 carboxamide], the figures for the IC50 in data set [5] and in [9] were 270 ± 100 nM and 4000 ± 340 nM, respectively. Further, the EC50 in data set [6] worked out at 2340 ± 460 nM. Further, in [7], the CC50 was > 125000 nM. For the same compound, the “TI (therapeutic index, CC50/EC50 ratio)” value in data set [8] is >53.4.
